Read-outs that look alike come from different tables or passages of the source.

The test system of assay [1] is human ileum monolayer culture. Put plainly: Sustained inhibition of apical acid secretion in human organoid monolayer cell cultures (ileum). As to conditions: Homo sapiens, 48 h; 1 μM apical, dosed day 6, apical media pH day 8, vs DMSO. It counts as cell-based. How it is done: (§1) Basal media (BM) consisted of advanced DMEM/F12 containing 10 mM HEPES Invitrogen, 15630-080), 1:100 Glutamax (Invitrogen, 35050-061), and 1:100 penicillin/streptomycin (Invitrogen, 15140-122). Supplemented basal media (SBM) contained 1:100 N2 (Invitrogen, 17502-048), 1:50 B27 (Invitrogen, 12587-010), 1 mM N-acetylcysteine (Sigma, A9165), and 10 nM [Leu15]-gastrin I (Sigma, G9145). Growth factors used included 50 ng per mL mouse EGF (Peprotech, 315-09), 100 ng per mL mouse noggin (Peprotech, 250-38), 500 ng per mL human R-spondin 1 (R&D, 4645-RS), 100 ng per mL mouse Wnt-3a (R&D, 1324-WN), 20 μM. Y-27632 (Tocris, 1254), 10 mM nicotinamide (Sigma, N0636), 500 nM A83-01 (Tocris, 2939), 10 μM SB202190 (Tocris, 1264). Transwells were 0.4 μm pore polyester membrane 24-well Transwell inserts (Corning). Cultures were incubated at 37° C. in 5% CO2.
(§2) Human ileum organoids were cultured in WENRNAS (Wnt, EGF, noggin, R-spondin1, Nicotinamide, A83-01, SB202190) and typically grown for 7-12 days before being used to plate monolayer cultures. On day 0, organoid cultures embedded in Matrigel were treated with TrypLE Express to break organoids into small pieces and/or single cells. The cells were resuspended to 0.5×10^6 cells/mL in SBM containing WENRAY (Wnt, EGF, noggin, R-spondin1, A83-01, Y-27632). Following this step, 200 μL of cell suspension was plated into the apical side of a 24-well Transwell (100,000 cells/well) and 600 μL of SBM with WENRAY was added to the basolateral side. Ileum cells were differentiated with ENRA (EGF, noggin, R-spondin 1, A83-01) on day 3. The color of apical compartment turns from pink or orange to yellow due to the increase in NHE3 expression after differentiation.
Each human ileum monolayer culture well was washed twice with fresh SBM on the apical side on day 6 before compound dosing. All compound stocks were 10 mM dissolved in DMSO. Each compound stock was individually mixed with fresh SBM to reach final compound concentration 1 μM and dosed only on the apical side of the monolayer (total volume 200 μl). DMSO at the equivalent concentration was used as the vehicle control. Duplicate wells were dosed for each compound. On day 8, apical media pH was measured by pH electrode, to determine the ability of example compounds to produce sustained inhibition of NHE3 activity in a human monolayer culture system by preventing proton secretion into the apical compartment.

Assay [2] has as its system human duodenum monolayer culture. The assay is described as follows: Increased trans-epithelial resistance (TEER) in human organoid monolayer cell cultures. Type of assay: cell-based. The settings on record: 1 μM apical, baseline corrected. The protocol:
as §1, with “media (B” for “media (BM)”, “HEPES (Invitrogen,” for “HEPES Invitrogen,”, “20 μM” for “20 μM.”
as §2, with “Human duodenum” for “Human ileum”, “side. Duodenum” for “side. Ileum”, “with ENA” for “with ENRA”, “noggin,” for “noggin, R-spondin 1,”
Each human duodenum monolayer culture well was washed twice with fresh SBM on the apical side on day 6 or day 7 before dosing. All compound stocks were 10 mM dissolved DMSO. Each compound stock was individually mixed with fresh SBM to reach final compound concentration 1 μM and dosed only on the apical side of the monolayer (total volume 200 μl). DMSO at the equivalent concentration was used as the vehicle control. Duplicate wells were dosed for each compound. Transepithelial electrical resistance (TEER) was used as a quantitative technique to measure of tight junction permeability. TEER values were recorded (MERS00002, Millipore) before dosing and 30 mins and 1 hr after dosing for all wells. Each of the duplicate TEER values following treatment were corrected for the individual well baseline TEER. Baseline corrected TEER for each example compound was compared to the average of the DMSO wells and expressed as a percent TEER of vehicle control.

[3] abbreviates: 1 hr after dosing, read-out: TEER at 60 minutes (% of Vehicle).
Setting [4] is: 0.5 h, 30 mins after dosing, read-out: TEER at 30 minutes (% of Vehicle).

Broadly, the inhibition is the drop in the measured response relative to a control, in per cent. In the case of `Cc1cc(S(=O)(=O)NCCOCCOCCNC(=O)NCCCCNC(=O)NCCOCCOCCNS(=O)(=O)c2ccc(O[C@H]3c4cc(Cl)cc(C)c4C[C@@H]3N(C)C)c(C)c2)ccc1O[C@H]1c2cc(Cl)cc(C)c2C[C@@H]1N(C)C` [Example 17, 3-[2-(2-[2-[(4-[[(1S,2S)-6-Chloro-2-(dimethylamino)-4-methyl-2,3-dihydro-1H-inden-1-yl]oxy]-3-methylbenzene)sulfonamido]ethoxy]ethoxy)ethyl]-1-[4-([[2-(2-[2-[(4-[[(1S,2S)-6-chloro-2-(dimethylamino)-4-methyl-2,3-dihydro-1H-inden-1-yl]oxy]-3-methylbenzene)sulfonamido]ethoxy]ethoxy)ethyl]carbamoyl]amino)butyl]urea], the inhibition at 1 µM in assay [1] was in the range of 50 to 70%. The activity at 1 µM in assay [2] (setting [3]) and in assay [2] (setting [4]) was 100 to 130% in each case.

As to `Cc1cc(Cl)cc2c1C[C@H](N(C)C)[C@H]2Oc1ccc(S(=O)(=O)NCCOCCOCCNC(=O)NCCCCNC(=O)NCCOCCOCCNS(=O)(=O)c2ccc(O[C@H]3c4cc(Cl)cc(C)c4C[C@@H]3N(C)C)c(F)c2)cc1F` [Example 24, 3-[2-(2-[2-[(4-[[(1S,2S)-6-Chloro-2-(dimethylamino)-4-methyl-2,3-dihydro-1H-inden-1-yl]oxy]-3-fluorobenzene)sulfonamido]ethoxy]ethoxy)ethyl]-1-[4-([[2-(2-[2-[(4-[[(1S,2S)-6-chloro-2-(dimethylamino)-4-methyl-2,3-dihydro-1H-inden-1-yl]oxy]-3-fluorobenzene)sulfonamido]ethoxy]ethoxy)ethyl]carbamoyl]amino)butyl]urea], in assay [1], the inhibition at 1 µM was less than 50%. Further, the activity at 1 µM in assay [2] (setting [3]) and in assay [2] (setting [4]) was 100 to 130% in each case.

`O=C(NCCCCNC(=O)NCCOCCOCCNS(=O)(=O)c1ccc(O[C@H]2c3cc(Cl)cc(Cl)c3C[C@@H]2N2CCNCC2)cc1)NCCOCCOCCNS(=O)(=O)c1ccc(O[C@H]2c3cc(Cl)cc(Cl)c3C[C@@H]2N2CCNCC2)cc1` [Example 31, 3-[2-(2-[2-[(4-[[(1S,2S)-4,6-Dichloro-2-(piperazin-1-yl)-2,3-dihydro-1H-inden-1-yl]oxy]benzene)sulfonamido]ethoxy]ethoxy)ethyl]-1-[4-([[2-(2-[2-[(4-[[(1S,2S)-4,6-dichloro-2-(piperazin-1-yl)-2,3-dihydro-1H-inden-1-yl]oxy]benzene)sulfonamido]ethoxy]ethoxy)ethyl]carbamoyl]amino)butyl]urea; bis(trifluoroacetic acid)]: the inhibition at 1 µM in assay [1] was greater than 70%. Besides, the activity at 1 µM in assay [2] (setting [3]) is greater than 130%; in assay [2] (setting [4]), 100 to 130%.

As for `Cc1cc(S(=O)(=O)NCCOCCOCCNC(=O)NCCCCNC(=O)NCCOCCOCCNS(=O)(=O)c2ccc(O[C@H]3c4cc(Cl)cc(Cl)c4C[C@@H]3N3CCNCC3)c(C)c2)ccc1O[C@H]1c2cc(Cl)cc(Cl)c2C[C@@H]1N1CCNCC1` [Example 32, 3-[2-(2-[2-[(4-[[(1S,2S)-4,6-Dichloro-2-(piperazin-1-yl)-2,3-dihydro-1H-inden-1-yl]oxy]-3-methylbenzene)sulfonamido]ethoxy]ethoxy)ethyl]-1-[4-([[2-(2-[2-[(4-[[(1S,2S)-4,6-dichloro-2-(piperazin-1-yl)-2,3-dihydro-1H-inden-1-yl]oxy]-3-methylbenzene)sulfonamido]ethoxy]ethoxy)ethyl]carbamoyl]amino)butyl]urea; bis(trifluoroacetic acid)], the inhibition at 1 µM in assay [1] was greater than 70%. Also, the activity at 1 µM is greater than 130% in assay [2] (setting [3]) and 100 to 130% in assay [2] (setting [4]).

As for `O=C(NCCCCNC(=O)NCCOCCOCCNS(=O)(=O)c1ccc(O[C@H]2c3cc(Cl)cc(Cl)c3C[C@@H]2N2CCNCC2)c(F)c1)NCCOCCOCCNS(=O)(=O)c1ccc(O[C@H]2c3cc(Cl)cc(Cl)c3C[C@@H]2N2CCNCC2)c(F)c1` [Example 33, 3-[2-(2-[2-[(4-[[(1S,2S)-4,6-Dichloro-2-(piperazin-1-yl)-2,3-dihydro-1H-inden-1-yl]oxy]-3-fluorobenzene)sulfonamido]ethoxy]ethoxy)ethyl]-1-[4-[[(2-(2-[2-[(4-[[(1S,2S)-4,6-dichloro-2-(piperazin-1-yl)-2,3-dihydro-1H-inden-1-y]oxy]-3-fluorobenzene)sulfonamido]ethoxy]ethoxy)ethyl]carbamoyl]amino)butyl]urea; bis(trifluoroacetic acid)], in assay [1], the inhibition at 1 µM is greater than 70%. In addition, the results for the activity at 1 µM in assay [2] (setting [3]) and in assay [2] (setting [4]) were greater than 130% and 100 to 130%, respectively.

In assay [1], `N#Cc1cc(Cl)cc2c1C[C@H](N1CCNCC1)[C@H]2Oc1ccc(S(=O)(=O)NCCOCCOCCNC(=O)NCCCCNC(=O)NCCOCCOCCNS(=O)(=O)c2ccc(O[C@H]3c4cc(Cl)cc(C#N)c4C[C@@H]3N3CCNCC3)cc2)cc1` [Example 41, 3-[2-(2-[2-[(4-[[(1S,2S)-6-Chloro-4-cyano-2-(piperazin-1-yl)-2,3-dihydro-1H-inden-1-yl]oxy]benzene)sulfonamido]ethoxy]ethoxy)ethyl]-1-[4-([[2-(2-[2-[(4-[[(1S,2S)-6-chloro-4-cyano-2-(piperazin-1-yl)-2,3-dihydro-1H-inden-1-yl]oxy]benzene)sulfonamido]ethoxy]ethoxy)ethyl]carbamoyl]amino)butyl]urea; bis(trifluoroacetic acid)] yielded an inhibition at 1 µM of 50 to 70%. The activity at 1 µM in assay [2] (setting [3]) and in assay [2] (setting [4]) was 100 to 130% in each case.

Turning to `Cc1cc(S(=O)(=O)NCCOCCOCCNC(=O)NCCCCNC(=O)NCCOCCOCCNS(=O)(=O)c2ccc(O[C@H]3c4cc(Cl)cc(C#N)c4C[C@@H]3N3CCNCC3)c(C)c2)ccc1O[C@H]1c2cc(Cl)cc(C#N)c2C[C@@H]1N1CCNCC1` [Example 42, 3-[2-(2-[2-[(4-[[(1S,2S)-6-Chloro-4-cyano-2-(piperazin-1-yl)-2,3-dihydro-1H-inden-1-yl]oxy]-3-methylbenzene)sulfonamido]ethoxy]ethoxy)ethyl]-1-[4-([[2-(2-[2-[(4-[[(1S,2S)-6-chloro-4-cyano-2-(piperazin-1-yl)-2,3-dihydro-1H-inden-1-yl]oxy]-3-methylbenzene)sulfonamido]ethoxy]ethoxy)ethyl]carbamoyl]amino)butyl]urea; bis(trifluoroacetic acid)], the inhibition at 1 µM in assay [1] was greater than 70%. The activity at 1 µM was greater than 130% in assay [2] (setting [3]) and 100 to 130% in assay [2] (setting [4]).

The values are drawn from US11242337B2, “Compounds useful for treating gastrointestinal tract disorders” (Ardelyx, Inc., priority 2017, dated 2022).
